Assay results from patent US20240327393A1 (SIRONAX LTD., priority 2021, published 2024).

Test system: HT-1080 (ATCC, CCL-121) cells
Experiment: HT-1080 cell viability assay with ferroptosis inducer RSL3 (Cell Titer-Glo)
Assay type: cell-based
Settings: Homo sapiens; HT-1080 cells treated with RSL3; 3-fold, 10-point dilution, 1.1 μM highest concentration; Table 3; read-out: EC50 (nM), ferroptosis inhibitory activity
Summary of the method: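 HT-1080 cells (6000 per well) were cultured overnight at 37 °C, then co-treated with RSL3 and compound in a 3-fold, 10-point series topping at 1.1 μM. Viability was read by CellTiter-Glo luminescence and normalized to untreated controls. EC50 came from a sigmoidal non-linear regression fit.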

| Compound | EC50 [nM] |
| --- | --- |
| COc1cc(Nc2cnc3c(c2)OCC(=O)N3)c(C)cc1N1CCC(C(F)(F)F)CC1 [Compound 547, 7-((5-methoxy-2-methyl-4-(4-(trifluoromethyl)piperidin-1-yl)phenyl)amino)-2H-pyrido[3,2-b][1,4]oxazin-3(4H)-one] | 0.1 to 100 |
| COc1cc(Nc2cc(C)c3c(c2)OCC(=O)N3)c(C)cc1N1CCC(C(F)(F)F)CC1 [Compound 548, 7-((5-methoxy-2-methyl-4-(4-(trifluoromethyl)piperidin-1-yl)phenyl)amino)-5-methyl-2H-benzo[b][1,4]oxazin-3(4H)-one] | 0.1 to 100 |
| O=C1COc2cc(Nc3ccc(N4C5CCC4CC5)cc3)ccc2N1 [Compound 549, 7-((4-(7-azabicyclo[2.2.1]heptan-7-yl)phenyl)amino)-2H-benzo[b][1,4]oxazin-3(4H)-one] | 0.1 to 100 |
| Cc1cc(N2CCC(C(F)(F)F)CC2)ccc1Nc1ccc2c(C(N)=O)cn(C)c2c1 [Compound 551, 1-methyl-6-((2-methyl-4-(4-(trifluoromethyl)piperidin-1-yl)phenyl)amino)-1H-indole-3-carboxamide] | 0.1 to 100 |
| Cc1cc(N2CCN(C(=O)C(F)(F)F)[C@@H](C)C2)ccc1Nc1ccc2c(c1)OCC(=O)N2 [Compound 552, (S)-7-((2-methyl-4-(3-methyl-4-(2,2,2-trifluoroacetyl)piperazin-1-yl)phenyl)amino)-2H-benzo[b][1,4]oxazin-3(4H)-one] | 0.1 to 100 |
| C[C@H]1CN(c2ccc(Nc3ccc4c(c3)OCC(=O)N4)cc2)CCN1C(=O)C(F)(F)F [Compound 553, (S)-7-((4-(3-methyl-4-(2,2,2-trifluoroacetyl)piperazin-1-yl)phenyl)amino)-2H-benzo[b][1,4]oxazin-3(4H)-one] | 0.1 to 100 |
| O=C1COc2cc(Nc3ccc(N4CCC(F)CC4)cc3)cnc2N1 [Compound 554, 7-((4-(4-fluoropiperidin-1-yl)phenyl)amino)-2H-pyrido[3,2-b][1,4]oxazin-3(4H)-one] | 0.1 to 100 |
| Cc1cc(N2CCC(O)(C(F)(F)F)CC2)ccc1Nc1ccc2c(c1)OCCC(=O)N2 [Compound 555, 8-((4-(4-hydroxy-4-(trifluoromethyl)piperidin-1-yl)-2-methylphenyl)amino)-2,3-dihydrobenzo[b][1,4]oxazepin-4(5H)-one] | 0.1 to 100 |
| O=C1CCOc2cc(Nc3ccc(N4CCC(O)(C(F)(F)F)CC4)cc3)ccc2N1 [Compound 556, 8-((4-(4-hydroxy-4-(trifluoromethyl)piperidin-1-yl)phenyl)amino)-2,3-dihydrobenzo[b][1,4]oxazepin-4(5H)-one] | 0.1 to 100 |
| CCC1CN(c2ccc(Nc3ccc4c(c3)OCCC(=O)N4)c(C)n2)CCO1 (stereo not shown) [Compound 557, 8-((6-(2-ethylmorpholino)-2-methylpyridin-3-yl)amino)-2,3-dihydrobenzo[b][1,4]oxazepin-4(5H)-one] | 0.1 to 100 |
| Cc1cc(N2CCC(F)CC2)ccc1Nc1cnc2c(c1)OCC(=O)N2 [Compound 558, 7-(4-(4-fluoropiperidin-1-yl)-2-methylphenylamino)-2H-pyrido[3,2-b][1,4]oxazin-3(4H)-one] | 0.1 to 100 |
| COC(C)(C)C1CCN(c2ccc(Nc3ccc4c(c3)OCC(=O)N4)c(C)c2)CC1 [Compound 559, 7-((4-(4-(2-methoxypropan-2-yl)piperidin-1-yl)-2-methylphenyl)amino)-2H-benzo[b][1,4]oxazin-3(4H)-one] | 0.1 to 100 |
| COC(C)(C)C1CCN(c2ccc(Nc3ccc4c(c3)OCC(=O)N4)cc2)CC1 [Compound 560, 7-((4-(4-(2-methoxypropan-2-yl)piperidin-1-yl)phenyl)amino)-2H-benzo[b][1,4]oxazin-3(4H)-one] | 0.1 to 100 |
| CC1CN(c2ccc(Nc3ccc4c(c3)OCC(=O)N4)cc2)CC(C(F)(F)F)O1 (stereo not shown) [Compound 561, 7-((4-(2-methyl-6-(trifluoromethyl)morpholino)phenyl)amino)-2H-benzo[b][1,4]oxazin-3(4H)-one] | 0.1 to 100 |
| Cc1cc(N2CC(C)OC(C(F)(F)F)C2)ccc1Nc1ccc2c(c1)OCC(=O)N2 (stereo not shown) [Compound 562, 7-((2-methyl-4-(2-methyl-6-(trifluoromethyl)morpholino)phenyl)amino)-2H-benzo[b][1,4]oxazin-3(4H)-one] | 0.1 to 100 |
| Cc1cc(N2CCCC2)ccc1Nc1ccc2c(c1)OCC(=O)N2 [Compound 563, 7-((2-methyl-4-(pyrrolidin-1-yl)phenyl)amino)-2H-benzo[b][1,4]oxazin-3(4H)-one] | 0.1 to 100 |
| COc1cc(Nc2ccc(N3CCC(C(F)(F)F)CC3)cc2C)cc2c1NC(=O)CO2 [Compound 564, 5-methoxy-7-((2-methyl-4-(4-(trifluoromethyl)piperidin-1-yl)phenyl)amino)-2H-benzo[b][1,4]oxazin-3(4H)-one] | 0.1 to 100 |
| COc1cc(Nc2ccc(N3CCC(C(F)(F)F)CC3)cc2C)cc2c1N(C)C(=O)CO2 [Compound 565, 5-methoxy-4-methyl-7-((2-methyl-4-(4-(trifluoromethyl)piperidin-1-yl)phenyl)amino)-2H-benzo[b][1,4]oxazin-3(4H)-one] | 0.1 to 100 |
| Cc1cc(N2CCC(C(F)(F)F)CC2)ccc1Nc1ccc2c(c1)CN(C)C(=O)N2 [Compound 566, 3-methyl-6-({2-methyl-4-[4-(trifluoromethyl)piperidin-1-yl]phenyl}amino)-1,4-dihydroquinazolin-2-one] | 0.1 to 100 |

| Compound | EC50 [nM] |
| --- | --- |
| Cc1cc(N2CCC(C(F)(F)F)CC2)ccc1Nc1ccc2[nH]cnc2c1 [Compound 567] | 0.1 to 100 |
| Cc1c(Nc2ccc(N3CCC(C(F)(F)F)CC3)cc2)ccc2c1OCC(=O)N2 [Compound 568, 8-methyl-7-((4-(4-(trifluoromethyl)piperidin-1-yl)phenyl)amino)-2H-benzo[b] [1,4] oxazin-3(4H)-one] | 0.1 to 100 |
| Cc1cc(N2CCN(CC(F)(F)F)CC2)ccc1Nc1ccc2c(c1)OCC(=O)N2 [Compound 569, 7-((2-methyl-4-(4-(2,2,2-trifluoroethyl)piperazin-1-yl)phenyl)amino)-2H-benzo[b][1,4] oxazin-3(4H)-one] | 0.1 to 100 |
| Cc1cc(N2CCC(C(F)(F)F)CC2)ccc1Nc1ccc2c(c1)OC(CO)C(=O)N2C (stereo not shown) [Compound 570, 2-(hydroxymethyl)-4-methyl-7-((2-methyl-4-(4-(trifluoromethyl)piperidin-1-yl)phenyl)amino)-2H-benzo[b][1,4]oxazin-3(4H)-one] | 0.1 to 100 |
| Cc1cc(N2CCC(C(F)(F)F)CC2)ccc1Nc1ccc2[nH]cc(C(N)=O)c2c1 [Compound 571, 5-((2-methyl-4-(4-(trifluoromethyl)piperidin-1-yl)phenyl)amino)-1H-indole-3-carboxamide] | 0.1 to 100 |
| Cc1cc(N2CC(F)C2)ccc1Nc1ccc2c(c1)OCC(=O)N2 [Compound 572, 7-(4-(3-fluoroazetidin-1-yl)-2-methylphenylamino)-2H-benzo[b][1,4]oxazin-3(4H)-one] | 0.1 to 100 |
| CCC1CN(c2ccc(Nc3ccc4c(c3)CNC(=O)N4)c(C)n2)CCO1 (stereo not shown) [Compound 573, 6-{[6-(2-ethylmorpholin-4-yl)-2-methylpyridin-3-yl]amino}-3,4-dihydro-1H-quinazolin-2-one] | 0.1 to 100 |
| Cc1cc(N2CCC(C)CC2)ccc1Nc1cnc2c(c1)OCC(=O)N2 [Compound 575, 7-((2-methyl-4-(4-methylpiperidin-1-yl)phenyl)amino)-2H-pyrido[3,2-b][1,4]oxazin-3(4H)-one] | 0.1 to 100 |
| Cc1cc(N2CC(F)(F)C2)ccc1Nc1ccc2c(c1)OCC(=O)N2 [Compound 576, 7-((4-(3,3-difluoroazetidin-1-yl)-2-methylphenyl)amino)-2H-benzo[b][1,4]oxazin-3(4H)-one] | 0.1 to 100 |
| Cc1cc(N2CC(C)C2)ccc1Nc1ccc2c(c1)OCC(=O)N2 [Compound 577, 7-((2-methyl-4-(3-methylazetidin-1-yl)phenyl)amino)-2H-benzo[b][1,4]oxazin-3(4H)-one] | 0.1 to 100 |
| COC1CN(c2ccc(Nc3ccc4c(c3)OCC(=O)N4)c(C)c2)C1 [Compound 578, 7-((4-(3-methoxyazetidin-1-yl)-2-methylphenyl)amino)-2H-benzo[b][1,4]oxazin-3(4H)-one] | 0.1 to 100 |
| Cc1cc(N2CCC(C(F)(F)F)CC2)ccc1Nc1ccc2c(c1)CN(CC(N)=O)C2 [Compound 579, 2-(5-((2-methyl-4-(4-(trifluoromethyl)piperidin-1-yl)phenyl)amino)isoindolin-2-yl)acetamide] | 0.1 to 100 |
| Cc1cc(N2CCN(CC(F)(F)F)[C@@H](C)C2)ccc1Nc1ccc2c(c1)OCC(=O)N2 [Compound 580, (S)-7-((2-methyl-4-(3-methyl-4-(2,2,2-trifluoroethyl)piperazin-1-yl)phenyl)amino)-2H-benzo[b][1,4]oxazin-3(4H)-one] | 0.1 to 100 |
| C[C@H]1CN(c2ccc(Nc3ccc4c(c3)OCC(=O)N4)cc2)CCN1CC(F)(F)F [Compound 581, (S)-7-((4-(3-methyl-4-(2,2,2-trifluoroethyl)piperazin-1-yl)phenyl)amino)-2H-benzo[b][1,4]oxazin-3(4H)-one] | 0.1 to 100 |
| O=C1CSc2cc(Nc3ccc(N4CCC(C(F)(F)F)CC4)cc3)ccc2N1 [Compound 582, 7-((4-(4-(trifluoromethyl)piperidin-1-yl)phenyl)amino)-2H-benzo[b][1,4]thiazin-3(4H)-one] | 0.1 to 100 |
| Cc1cc(N2CC(C(F)(F)F)C2)ccc1Nc1ccc2c(c1)OCC(=O)N2 [Compound 583, 7-((2-methyl-4-(3-(trifluoromethyl)azetidin-1-yl)phenyl)amino)-2H-benzo[b][1,4]oxazin-3(4H)-one] | 0.1 to 100 |
| Cc1cc(N2CCC2)ccc1Nc1ccc2c(c1)OCC(=O)N2 [Compound 585, 7-((4-(azetidin-1-yl)-2-methylphenyl)amino)-2H-benzo[b][1,4]oxazin-3(4H)-one] | 0.1 to 100 |
| Cc1cc(N2CCC2)ccc1Nc1ccc2c(c1)OCCC(=O)N2 [Compound 586, 8-((4-(azetidin-1-yl)-2-methylphenyl)amino)-2,3-dihydrobenzo[b][1,4]oxazepin-4(5H)-one] | 0.1 to 100 |
